Laboratory results published in patent publication US11358969B2, “Indole AHR inhibitors and uses thereof” (Ikena Oncology, Inc., priority 2017, dated 2022).

Key:
[1] = In Vitro Mouse liver S9 Metabolic Stability Assay (Example 1D); assay type: in vitro ADME; conditions: CD-1 mouse liver S9, 1 μM compound, 1 mg/mL S9 protein, 37° C., NADPH regenerating system, UDPGA, PAPS
In short: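 Compound at 1 μM final (0.1% DMSO) incubated at 37° C with pooled CD-1 mouse liver S9 (1 mg/mL protein) plus NADPH-regenerating system, UDPGA and PAPS. Samples at 0 and 60 min quenched in cold acetonitrile with internal standard; LC-MS/MS analyte/IS peak-area ratios give % remaining at 60 min.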

[2] = biological target: T1, AHR (UniProt P35869); test: DRE-Luciferase Reporter Assay (Example 1A); assay type: cell-based, murine or human; conditions: cell line and AHR activating ligand not specified
T1 construct: IC50
T1 sequence (P35869 1-848): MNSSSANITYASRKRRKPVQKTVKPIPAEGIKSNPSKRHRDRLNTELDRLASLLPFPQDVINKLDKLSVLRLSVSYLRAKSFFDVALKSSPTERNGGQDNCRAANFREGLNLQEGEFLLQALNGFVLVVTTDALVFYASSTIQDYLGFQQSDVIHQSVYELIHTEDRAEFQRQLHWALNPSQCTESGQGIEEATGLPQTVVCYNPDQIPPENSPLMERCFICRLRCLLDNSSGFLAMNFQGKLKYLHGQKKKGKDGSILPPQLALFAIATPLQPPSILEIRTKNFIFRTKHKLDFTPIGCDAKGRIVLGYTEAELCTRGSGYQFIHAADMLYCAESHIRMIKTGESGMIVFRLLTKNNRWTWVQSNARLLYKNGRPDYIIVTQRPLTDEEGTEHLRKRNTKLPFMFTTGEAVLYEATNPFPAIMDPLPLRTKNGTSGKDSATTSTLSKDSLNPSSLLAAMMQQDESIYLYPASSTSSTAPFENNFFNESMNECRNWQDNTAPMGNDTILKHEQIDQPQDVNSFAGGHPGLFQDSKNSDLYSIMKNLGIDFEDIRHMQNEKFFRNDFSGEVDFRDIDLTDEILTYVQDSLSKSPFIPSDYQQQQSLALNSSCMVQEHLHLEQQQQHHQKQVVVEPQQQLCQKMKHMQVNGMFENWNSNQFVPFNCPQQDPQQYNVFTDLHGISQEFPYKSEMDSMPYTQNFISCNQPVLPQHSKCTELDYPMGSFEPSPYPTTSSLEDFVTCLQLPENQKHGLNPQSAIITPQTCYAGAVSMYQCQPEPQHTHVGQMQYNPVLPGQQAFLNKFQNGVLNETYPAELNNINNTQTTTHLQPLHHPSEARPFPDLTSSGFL
Method: AHR binds to Dioxin Responsive Elements (DRE) upstream of genes that it activates. One measure of AHR activity is activation of a reporter gene, such as luciferase, downstream of one or multiple DRE elements. Luciferase activity will reflect activation and inhibition of AHR in the cells expressing his reporter.
Murine Hepa1-6 or Hepa-1c1c7 or other murine cell line with a DRE-luciferase reporter either stably or transiently transfected were plated in media in plates (96-well, 384-well or other plates) and incubated overnight at 37° C. in a CO2 incubator. Likewise, human HepG2 or other human cell line with a DRE-luciferase reporter either stably or transiently transfected were plated in media in plates (96-well, 384-well or other plates) and incubated overnight at 37° C. in a CO2 incubator.
The next day, an AHR activating ligand, such as TCDD, kynurenine, ITE (2-(1H-indole-3-ylcarbonyl)-4-thiazolecarboxylic methyl ester), VAF347, BNF (beta-naphthoflavone), FICZ (6-formylindolo(3,2-b) carbazole or other AHR ligands, was added with or without AHR antagonist.
Cells were incubated for 4, 15 or 24 hours or another time point and then lysed for determination of luciferase activity as a read-out of the AHR activation or inhibition. Luciferase was measured with a commercial kit such as the Promega Luciferase kit or any kit or reagents that provide the luciferin substrate for measuring luciferase activity. The level of luciferase with only activating ligand added was the maximum signal while the luciferase with no ligand was the minimum signal. IC50 values were determined as the concentration which inhibits half of the luciferase activity.

[3] = tested on: CT26 murine colon carcinoma; test: Efficacy study in the mouse colorectal cancer model CT26 (Example 1G); assay type: in vivo; conditions: CT26 in Balb/c mice, FIG. 3
Method: CT26 is a murine colon carcinoma cell line obtained from ATCC. CT26 cells were cultured in RPMI supplemented with 10% FBS. 5×10^5 CT26 cells in 100 μl PBS were implanted subcutaneously in 6-8 week old female, Balb/c mice. Dosing for the efficacy study starts 4 days post implant: AHR antagonist was dosed orally, every day (QD) at or 10 mg/kg for 3 weeks. anti-PD-1 (BioXcell RMP1-14) was twice a week, intraperitoneally (IP) at 10 mg/kg for five total doses. Tumors were monitored by caliper measurement every 2-3 days and body weight measured three times per week.

Structure (SMILES)	Mouse S9 Stability: % Remaining After 60 Minutes [1] [%]	IC50 [2] [nM]	Tumor growth ([3]; I-70 alone, orally QD 10 mg/kg for 3 weeks)	Tumor growth ([3]; I-70 in combination with anti-PD-1 (IP 10 mg/kg twice a week))
CC(C)c1cnn2c(NCCc3c[nH]c4ccccc34)cc(-c3cncc(F)c3)nc12 [I-2, N-(2-(1H-indol-3-yl)ethyl)-5-(5-fluoropyridin-3-yl)-3-isopropylpyrazolo[1,5-a]pyrimidin-7-amine]	13	< 500		
CC(C)c1cnn2c(N[C@@H]3CCc4[nH]c5ccccc5c4C3)nc(-c3cncc(F)c3)nc12 [I-40, (3R)—N-[2-(5-Fluoro-3-pyridyl)-8-isopropyl-pyrazolo[1,5-a][1,3,5]triazin-4-yl]-2,3,4,9-tetrahydro-1H-carbazol-3-amine]	87			
Cc1cnn2c(NCCc3c[nH]c4ccccc34)cc(-c3cncc(F)c3)nc12 [I-70, 5-(5-Fluoro-3-pyridyl)-N-[2-(1H-indol-3-yl)ethyl]-3-methyl-pyrazolo[1,5-a]pyrimidin-7-amine]	0		inhibited	inhibited
Cc1cnn2c(N[C@@H]3CCc4[nH]c5ccccc5c4C3)nc(-c3cncc(F)c3)nc12 [I-201, (3R)—N-[2-(5-fluoro-3-pyridyl)-8-methyl-pyrazolo[1,5-a][1,3,5]triazin-4-yl]-2,3,4,9-tetrahydro-1H-carbazol-3-amine]	34			
